Results: patent US20240417393A1, “CERTAIN 2,5-DIAZABICYCLO[4.2.0]OCTANES AS GLP-1 RECEPTOR MODULATORS” (ASTRAZENECA AB, priority 2021, published 2024)

What was measured:
human GLP-1R receptor = biological target: T1, human GLP-1R receptor (Homo sapiens, UniProt P43220, L260F); assay: CHOK1 GLP-1R cAMP Assay (HTRF); format: cell-based; settings: CHO-K1 cells stably expressing human GLP-1R (Leu260Phe variant), 20 min at rt
T1 construct: expressed in transfected cells; host or cells: CHO-K1 (ATCC CCL-61)

[1] = biological target: T2, GLP-1R in a pancreatic insulinoma cell line (EndoC-PH1) (Homo sapiens, UniProt P43220); assay: EndoC cAMP Accumulation Assay (HTRF); format: cell-based; settings: EndoC-PH1 human pancreatic beta cell line, endogenous GLP-1R, 30 min at rt
T2 construct: host or cells: EndoC-βH1 human pancreatic beta cell line
Procedure, shortened: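 Thawed human EndoC-βH1 cells, about 3000 per well, stimulated with compound 30 min at room temperature in HBSS/HEPES pH 7.4 with 0.1% BSA and 0.5 mM IBMX; cAMP by competitive HTRF. Responses as % activation relative to maximal GIP (82.5 nM), 4-parameter logistic fit.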

[2] = biological target: T3, human phosphodiesterase-3A (Homo sapiens, UniProt Q14432); assay: PDE3 Assay ([3H]cAMP to 5'AMP, SPA); format: biochemical; settings: human recombinant PDE3A expressed in Sf9 cells; 450 nM cAMP; 20 min at 22° C.
T3 construct: host or cells: Sf9 (Spodoptera frugiperda) cells
Experimental: Evaluation of the effects of compounds on the activity of the human phosphodiesterase-3A is quantified by measuring the formation of 5′AMP from cAMP using a human recombinant is enzyme expressed in a clonal isolate of Spodoptera frugiperda cells (Sf9) cells.
The test compound, reference compound or water (control) are added to a buffer containing 40 mM tris(hydroxymethyl)aminomethane (Tris)/HCl (pH 7.4) and 8 mM MgCl2, 450 nMcAMP and 0.25 μCi [^3H]cAMP.
Thereafter, the reaction is initiated by addition of the enzyme (about 1U) and the mixture is incubated for 20 min at 22° C.
For basal control measurements, the enzyme is omitted from the reaction mixture.
Following incubation SPA beads are added. After 30 min at 22° C. under shaking, the amount of [^3H]5′AMP is quantified with a scintillation counter (Topcount, Packard).
The results are expressed as a percent inhibition of the control enzyme activity. The standard inhibitory reference compound is milrinone (CAS number 78415-72-2), which is tested in each experiment at several concentrations to obtain an inhibition curve from which its IC50 value is calculated.

T2 sequence (P43220 24-463): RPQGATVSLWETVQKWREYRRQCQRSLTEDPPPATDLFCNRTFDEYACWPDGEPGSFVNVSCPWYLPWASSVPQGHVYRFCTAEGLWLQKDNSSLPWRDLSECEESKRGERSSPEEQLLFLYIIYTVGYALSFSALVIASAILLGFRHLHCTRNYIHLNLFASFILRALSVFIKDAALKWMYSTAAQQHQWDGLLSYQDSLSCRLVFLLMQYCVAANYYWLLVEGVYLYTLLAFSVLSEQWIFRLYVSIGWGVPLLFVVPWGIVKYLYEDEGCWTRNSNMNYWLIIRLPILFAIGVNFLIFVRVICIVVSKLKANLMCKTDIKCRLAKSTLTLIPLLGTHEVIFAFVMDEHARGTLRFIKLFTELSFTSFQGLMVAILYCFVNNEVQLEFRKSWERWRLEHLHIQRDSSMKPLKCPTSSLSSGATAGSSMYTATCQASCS
T3 sequence (Q14432 whole entry): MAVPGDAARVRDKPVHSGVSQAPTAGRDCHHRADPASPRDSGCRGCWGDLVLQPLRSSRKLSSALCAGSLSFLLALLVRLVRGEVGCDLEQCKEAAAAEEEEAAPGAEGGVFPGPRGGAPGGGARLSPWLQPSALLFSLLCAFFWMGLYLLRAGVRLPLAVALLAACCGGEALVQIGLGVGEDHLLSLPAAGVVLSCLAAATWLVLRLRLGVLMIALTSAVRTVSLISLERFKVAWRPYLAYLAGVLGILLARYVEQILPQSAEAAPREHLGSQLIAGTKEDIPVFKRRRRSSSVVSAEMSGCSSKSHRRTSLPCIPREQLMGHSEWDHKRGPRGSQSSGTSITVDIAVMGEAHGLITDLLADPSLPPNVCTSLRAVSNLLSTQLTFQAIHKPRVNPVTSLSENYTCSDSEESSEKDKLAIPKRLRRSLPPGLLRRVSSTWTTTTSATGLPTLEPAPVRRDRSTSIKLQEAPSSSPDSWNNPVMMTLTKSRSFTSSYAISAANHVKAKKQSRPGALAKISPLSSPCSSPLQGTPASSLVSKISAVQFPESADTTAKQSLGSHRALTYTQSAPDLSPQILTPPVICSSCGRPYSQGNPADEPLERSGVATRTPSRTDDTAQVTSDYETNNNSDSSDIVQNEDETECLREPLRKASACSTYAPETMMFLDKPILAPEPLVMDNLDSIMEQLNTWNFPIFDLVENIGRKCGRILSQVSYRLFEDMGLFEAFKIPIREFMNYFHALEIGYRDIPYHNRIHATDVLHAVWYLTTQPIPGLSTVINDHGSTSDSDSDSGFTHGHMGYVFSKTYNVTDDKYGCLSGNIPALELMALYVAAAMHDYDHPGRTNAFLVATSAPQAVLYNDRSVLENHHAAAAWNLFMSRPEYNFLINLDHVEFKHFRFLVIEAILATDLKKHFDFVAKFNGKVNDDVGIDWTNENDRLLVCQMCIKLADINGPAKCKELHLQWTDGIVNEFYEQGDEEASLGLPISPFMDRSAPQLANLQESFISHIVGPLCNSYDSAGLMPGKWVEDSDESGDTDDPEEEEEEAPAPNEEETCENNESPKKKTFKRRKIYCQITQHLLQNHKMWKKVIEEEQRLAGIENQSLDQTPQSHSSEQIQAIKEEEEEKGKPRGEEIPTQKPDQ
T1 sequence (P43220 24-463 L260F): as the sequence (P43220 24-463) above, with L237F counted along it

EC50 (human GLP-1R receptor) [nM] | EC50 [1] [nM] | IC50 [2] [nM] | Structure (SMILES)
1.2 | 2.9 | > 87000 | C[C@]1(c2ccc(Cl)cn2)Oc2cccc(N3CCN(Cc4nc5c(F)cc(C(=O)O)cc5n4C[C@@H]4CCO4)[C@H]4CC[C@H]43)c2O1 (single isomer, unassigned) [Example 1b, 2-(((1R*,6S*)-5-((R*)-2-(5-Chloropyridin-2-yl)-2-methylbenzo[d][1,3]dioxol-4-yl)-2,5-diazabicyclo[4.2.0]octan-2-yl)methyl)-4-fluoro-1-(((S)-oxetan-2-yl)methyl)-1H-benzo[d]imidazole-6-carboxylic acid]
2.2 | 3.2 | > 100000 | C[C@]1(c2ccc(Cl)cn2)Oc2cccc(N3CCN(Cc4nc5c(F)cc(C(=O)O)cc5n4C[C@@H]4CCO4)[C@H]4CC[C@H]43)c2O1 (single isomer, unassigned) [Example 1c, 2-((1R*,6S*)-5-(R*)-2-(5-Chloropyridin-2-yl)-2-methylbenzo[d][1,3]dioxol-4-yl)-2,5-diazabicyclo[4.2.0]octan-2-yl)methyl)-4-fluoro-1-(((S)-oxetan-2-yl)methyl)-1H-benzo[d]imidazole-6-carboxylic acid]
 |  | > 100000 | COc1cc(C(=O)O)cc2c1nc(CN1CCN(c3cccc4c3O[C@@](C)(c3ccc(Cl)cn3)O4)[C@@H]3CC[C@@H]31)n2C[C@@H]1CCO1 (single isomer, unassigned) [Example 2a, 2-((1R*,6S*)-5-(R*)-2-(5-Chloropyridin-2-yl)-2-methylbenzo[d][1,3]dioxol-4-yl)-2,5-diazabicyclo[4.2.0]octan-2-yl)methyl)-4-methoxy-1-(((S)-oxetan-2-yl)methyl)-1H-benzo[d]imidazole-6-carboxylic acid]
 |  | > 100000 | COc1cc(C(=O)O)cc2c1nc(CN1CCN(c3cccc4c3O[C@@](C)(c3ccc(Cl)cn3)O4)[C@@H]3CC[C@@H]31)n2C[C@@H]1CCO1 (single isomer, unassigned) [Example 2d, 2-((1R*,6S*)-5-(R*)-2-(5-Chloropyridin-2-yl)-2-methylbenzo[d][1,3]dioxol-4-yl)-2,5-diazabicyclo[4.2.0]octan-2-yl)methyl)-4-methoxy-1-(((S)-oxetan-2-yl)methyl)-1H-benzo[d]imidazole-6-carboxylic acid]
0.9 | 2.6 | > 100000 | C[C@]1(c2ccc(Cl)cn2)Oc2cccc(N3CCN(Cc4nc5c(Cl)cc(C(=O)O)cc5n4C[C@@H]4CCO4)[C@@H]4CC[C@H]43)c2O1 (single isomer, unassigned) [Example 3b]
11 | 8.8 | > 100000 | C[C@]1(c2ccc(Cl)cn2)Oc2cccc(N3CCN(Cc4nc5c(Cl)cc(C(=O)O)cc5n4C[C@@H]4CCO4)[C@H]4CC[C@@H]43)c2O1 (single isomer, unassigned) [Example 3c, 4-Chloro-2-(((1R*,6R*)-5-((R*)-2-(5-chloropyridin-2-yl)-2-methylbenzo[d][1,3]dioxol-4-yl)-2,5-diazabicyclo[4.2.0]octan-2-yl)methyl)-1-(((S)-oxetan-2-yl)methyl)-1H-benzo[d]imidazole-6-carboxylic acid]
1.9 | 6.5 | > 100000 | C[C@]1(c2ccc(Cl)cn2)Oc2cccc(N3CCN(Cc4nc5ccc(C(=O)O)cc5n4C[C@@H]4CCO4)[C@H]4CC[C@H]43)c2O1 (single isomer, unassigned) [Example 5a, 2-((1R*,6S*)-5-(R*)-2-(5-Chloropyridin-2-yl)-2-methylbenzo[d][1,3]dioxol-4-yl)-2,5-diazabicyclo[4.2.0]octan-2-yl)methyl)-1-(((S)-oxetan-2-yl)methyl)-1H-benzo[d]imidazole-6-carboxylic acid]
 |  | > 100000 | COc1cc(C(=O)O)cc2c1nc(CN1CCN(c3cccc4c3O[C@@](C)(c3ccc(Cl)cn3)O4)[C@H]3CC[C@@H]31)n2C[C@@H]1CCO1 (single isomer, unassigned) [Example 6a, 2-(((1R*,6R*)-5-((R*)-2-(5-Chloropyridin-2-yl)-2-methylbenzo[d][1,3]dioxol-4-yl)-2,5-diazabicyclo[4.2.0]octan-2-yl)methyl)-4-methoxy-1-(((S)-oxetan-2-yl)methyl)-1H-benzo[d]imidazole-6-carboxylic acid]
2.5 | 6.1 | > 100000 | COc1cc(C(=O)O)cc2c1nc(CN1CCN(c3cccc4c3O[C@@](C)(c3ccc(Cl)cn3)O4)[C@H]3CC[C@@H]31)n2C[C@@H]1CCCO1 (single isomer, unassigned) [Example 7b, 2-(((1R*,6R*)-5-((R*)-2-(5-Chloropyridin-2-yl)-2-methylbenzo[d][1,3]dioxol-4-yl)-2,5-diazabicyclo[4.2.0]octan-2-yl)methyl)-4-methoxy-1-(((S)-tetrahydrofuran-2-yl)methyl)-1H-benzo[d]imidazole-6-carboxylic acid]
1.6 | 2.6 | > 100000 | COc1cc(C(=O)O)cc2c1nc(CN1CCN(c3cccc4c3O[C@@](C)(c3ccc(Cl)cn3)O4)[C@@H]3CC[C@@H]31)n2C[C@@H]1CCCO1 (single isomer, unassigned) [Example 8c]
0.8 | 3.3 | > 100000 | C[C@]1(c2ccc(Cl)cc2F)Oc2cccc(N3CCN(Cc4nc5c(F)cc(C(=O)O)cc5n4C[C@@H]4CCO4)[C@H]4CC[C@H]43)c2O1 (single isomer, unassigned) [Example 9b]
0.9 | 3.5 | > 100000 | CCn1ccnc1Cn1c(CN2CCN(c3cccc4c3O[C@@](C)(c3ccc(Cl)cn3)O4)[C@H]3CC[C@@H]32)nc2c(Cl)cc(C(=O)O)cc21 (single isomer, unassigned) [Example 10a]
64 | 160 |  | C[C@]1(c2ccc(Cl)cn2)Oc2cccc(N3CCN(Cc4nc5c(Cl)cc(C(=O)O)cc5n4CC4(CC#N)CC4)[C@H]4CC[C@@H]43)c2O1 (single isomer, unassigned) [Example 26c]
10 | 7 |  | C[C@]1(c2ccc(Cl)cn2)Oc2cccc(N3CCN(Cc4nc5c(Cl)cc(C(=O)O)cc5n4CC4(CC#N)CC4)[C@H]4CC[C@@H]43)c2O1 (single isomer, unassigned) [Example 26d]
